Laboratory results as given in ChEMBL document CHEMBL1131216, “Anhydrolide macrolides. 2. Synthesis and antibacterial activity of 2,3-anhydro-6-O-methyl 11,12-carbazate erythromycin A analogues” (1998).
Values after ≈ are worked out from the molar mass of the structure shown.

Columns and labels:
Assay type in all cases: functional
Streptococcus pyogenes [1] = test: In vitro antibacterial activity of PIU2584 strain of Gram positive bacteria Streptococcus pyogenes
Streptococcus pyogenes [2] = test: In vitro antibacterial activity of 930 strain of Gram positive bacteria Streptococcus pyogenes
Streptococcus pneumoniae [3] = test: In vivo antibacterial activity of ATCC 6303 strain of Gram positive bacteria Streptococcus pneumoniae (95% confidence interval)
Streptococcus pneumoniae [4] = test: In vivo antibacterial activity of ATCC 6303 strain of Gram positive bacteria Streptococcus pneumoniae
Staphylococcus aureus [5] = test: In vitro antibacterial activity of A-5278 strain of Gram positive bacteria Staphylococcus aureus
Staphylococcus aureus [6] = test: In vitro antibacterial activity of A5177 strain of Gram positive bacteria Staphylococcus aureus
Streptococcus pneumoniae [7] = test: In vitro antibacterial activity of ATCC 6303 strain of Gram positive bacteria Streptococcus pneumoniae
Staphylococcus aureus [8] = test: In vivo antibacterial activity of NCTC-10649 strain of Gram positive bacteria Staphylococcus aureus (95% confidence interval)
Haemophilus influenzae = test: In vitro antibacterial activity of DILL strain of Gram negative bacteria Haemophilus influenzae
Staphylococcus aureus [9] = test: In vivo antibacterial activity of NCTC-10649 strain of Gram positive bacteria Staphylococcus aureus
Streptococcus pyogenes [10] = test: In vitro antibacterial activity of EES61 strain of Gram positive bacteria Streptococcus pyogenes
Staphylococcus aureus [11] = test: In vitro antibacterial activity of 6538P strain of Gram positive bacteria Staphylococcus aureus
Streptococcus pneumoniae [12] = test: In vitro antibacterial activity of 5649 strain of Gram positive bacteria Streptococcus pneumoniae
Streptococcus pneumoniae [13] = test: In vitro antibacterial activity of 5979 strain of Gram positive bacteria Streptococcus pneumoniae

SMILES	MIC (Streptococcus pyogenes [1]) [µg/mL]	MIC (Streptococcus pyogenes [2]) [µg/mL]	ED50 (Streptococcus pneumoniae [3]) [mg/kg/day]	MIC (Streptococcus pneumoniae [4]) [µg/mL]	MIC (Staphylococcus aureus [5]) [µg/mL]	MIC (Staphylococcus aureus [6]) [µg/mL]	MIC (Streptococcus pneumoniae [7]) [µg/mL]	ED50 (Staphylococcus aureus [8]) [mg/kg/day]	MIC (Haemophilus influenzae) [µg/mL]	MIC (Staphylococcus aureus [9]) [µg/mL]	MIC (Streptococcus pyogenes [10]) [µg/mL]	MIC (Staphylococcus aureus [11]) [µg/mL]	MIC (Streptococcus pneumoniae [12]) [µg/mL]	MIC (Streptococcus pneumoniae [13]) [µg/mL]
CC[C@H]1OC(=O)/C(C)=C/[C@H](C)[C@@H](O[C@@H]2O[C@H](C)C[C@H](N(C)C)[C@H]2O)[C@@](C)(OC)C[C@@H](C)C(=O)[C@H](C)[C@H]2N(NC/C=C/c3ccc([N+](=O)[O-])cc3)C(=O)O[C@]12C	1 (≈ 1.29 µM)	32 (≈ 41.4 µM)	16.8	0.004 (≈ 0.00518 µM)	100 (≈ 129 µM)	0.2 (≈ 0.259 µM)	0.03 (≈ 0.0388 µM)	50.1	8 (≈ 10.4 µM)	0.2 (≈ 0.259 µM)	0.06 (≈ 0.0776 µM)	0.2 (≈ 0.259 µM)	1 (≈ 1.29 µM)	64 (≈ 82.8 µM)
CC[C@H]1OC(=O)/C(C)=C/[C@H](C)[C@@H](O[C@@H]2O[C@H](C)C[C@H](N(C)C)[C@H]2O)[C@@](C)(OC)C[C@@H](C)C(=O)[C@H](C)[C@H]2N(NC/C=C/c3ccc(N)cc3)C(=O)O[C@]12C	1 (≈ 1.35 µM)	> 128	9.9	0.03 (≈ 0.0404 µM)	> 100	0.2 (≈ 0.269 µM)	0.03 (≈ 0.0404 µM)	39.9	2 (≈ 2.69 µM)	0.2 (≈ 0.269 µM)	0.03 (≈ 0.0404 µM)	0.2 (≈ 0.269 µM)	1 (≈ 1.35 µM)	> 128
CC[C@H]1OC(=O)[C@H](C)[C@@H](O[C@H]2C[C@@](C)(OC)[C@@H](O)[C@H](C)O2)[C@H](C)[C@@H](O[C@@H]2O[C@H](C)C[C@H](N(C)C)[C@H]2O)[C@](C)(OC)C[C@@H](C)C(=O)[C@H](C)[C@@H](O)[C@]1(C)O [CLARITHROMYCIN]			27.2	0.03 (≈ 0.0401 µM)				22.4		0.39 (≈ 0.521 µM)				
